The numbers were not newly measured in PubChem BioAssay AID1259409 (Chemical Carcinogenesis Research Information System (CCRIS), 2018), which cites them from elsewhere.

Molecules are shown by their SMILES.

The test system of this data set is rodent chemically induced tumor inhibition, incidence and multiplicity. Briefly: CCRIS tumor inhibitor studies.

Turning to `COc1cc(/C=C/C(=O)CC(=O)/C=C/c2ccc(O)c(OC)c2)ccc1O`, the “tumour outcome (control, treated, inhibition, significance)” value reads like this: (Carcinogen: 1,2-DIMETHYLHYDRAZINE [540-73-8], Species: RAT, Strain/Sex: WISTAR, Target Tissue: Type of Lesion: COLON, Dose [Carcinogen]: 20 MG/KG) 81.3%, 61%, 25%, p<0.05; (Carcinogen: 2,2'-DIHYDROXY-DI-N-PROPYLNITROSAMINE, 53609-64-6, N-ETHYL-N-HYDROXYETHYLNITROSAMINE, 13147-25-6, 3,2'-DIMETHYL-1,4-, Carcinogen: 2,2'-DIHYDROXY-DI-N-PROPYLNITROSAMINE, 53609-64-6, N-ETHYL-N-HYDROXYETHYLNITROSAMINE, 13147-25-6, 3,2'-DIMETHYL-1,4-, Dose [Inhibitor]: 0, 1% IN DIET FOR 4 WK BEGINNING 1 D PRIOR TO FIRST CARCINOGEN DOSE (STUDY DURATION: 36 WK), Route [Inhibitor]: ORAL, Species: RAT, Strain/Sex: F344/MALE, Target Tissue: Type of Lesion: KIDNEY: ADENOMA, Dose [Carcinogen]: 1000 MG/KG BW DHPN TWICE, 1500 MG/KG EHEN TWICE, 75 MG/KG BW DMAB 3 TIMES, SEQUENTIALLY OVER 3 WK, Promoter: NONE USED) 6/10 (60%), 6/13 (46%), 23%, not significant; (Carcinogen: 2,2'-DIHYDROXY-DI-N-PROPYLNITROSAMINE, 53609-64-6, N-ETHYL-N-HYDROXYETHYLNITROSAMINE, 13147-25-6, 3,2'-DIMETHYL-1,4-, Carcinogen: 2,2'-DIHYDROXY-DI-N-PROPYLNITROSAMINE, 53609-64-6, N-ETHYL-N-HYDROXYETHYLNITROSAMINE, 13147-25-6, 3,2'-DIMETHYL-1,4-, Dose [Inhibitor]: 0, 1% IN DIET FOR 4 WK BEGINNING 1 D PRIOR TO FIRST CARCINOGEN DOSE (STUDY DURATION: 36 WK), Route [Inhibitor]: ORAL, Species: RAT, Strain/Sex: F344/MALE, Target Tissue: Type of Lesion: LUNG: ADENOMA, Dose [Carcinogen]: 1000 MG/KG BW DHPN TWICE, 1500 MG/KG EHEN TWICE, 75 MG/KG BW DMAB 3 TIMES, SEQUENTIALLY OVER 3 WK, Promoter: NONE USED) 5/10 (50%), 10/13 (77%), -54%, not significant; (Carcinogen: 4-NITROQUINOLINE-1-OXIDE, 56-57-5, Dose [Inhibitor]: 0, 500 PPM IN DIET FOR 10 WK BEGINNING 1 WK PRIOR TO CARCINOGEN TREATMENT (STUDY DURATION: 32 WK), Route [Inhibitor]: ORAL, Species: RAT, Strain/Sex: F344/MALE, Target Tissue: Type of Lesion: TONGUE: CARCINOMA, Dose [Carcinogen]: 20 PPM IN DRINKING WATER FOR 8 WK, Promoter: NONE USED) 13/24 (54%), 1/19 (5%), 91%, p<0.05; (Carcinogen: 4-NITROQUINOLINE-1-OXIDE, 56-57-5, Dose [Inhibitor]: 0, 500 PPM IN DIET FOR 10 WK BEGINNING 1 WK PRIOR TO CARCINOGEN TREATMENT (STUDY DURATION: 32 WK), Route [Inhibitor]: ORAL, Species: RAT, Strain/Sex: F344/MALE, Target Tissue: Type of Lesion: TONGUE: PAPILLOMA, Dose [Carcinogen]: 20 PPM IN DRINKING WATER FOR 8 WK, Promoter: NONE USED) 4/24 (17%), 0/19 (0%), 100%, not significant; (Carcinogen: 4-NITROQUINOLINE-1-OXIDE, 56-57-5, Dose [Inhibitor]: 0, 500 PPM IN DIET FOR 22 WK BEGINNING 1 WK POST CARCINOGEN TREATMENT (STUDY DURATION: 32 WK), Route [Inhibitor]: ORAL, Species: RAT, Strain/Sex: F344/MALE, Target Tissue: Type of Lesion: TONGUE: CARCINOMA, Dose [Carcinogen]: 20 PPM IN DRINKING WATER FOR 8 WK, Promoter: NONE USED) 13/24 (54%), 3/20 (15%), 72%, p<0.05. Further, the “tumour outcome (control, treated, inhibition, significance)” value reads like this: (Carcinogen: 4-NITROQUINOLINE-1-OXIDE, 56-57-5, Dose [Inhibitor]: 0, 500 PPM IN DIET FOR 22 WK BEGINNING 1 WK POST CARCINOGEN TREATMENT (STUDY DURATION: 32 WK), Route [Inhibitor]: ORAL, Species: RAT, Strain/Sex: F344/MALE, Target Tissue: Type of Lesion: TONGUE: PAPILLOMA, Dose [Carcinogen]: 20 PPM IN DRINKING WATER FOR 8 WK, Promoter: NONE USED) 4/24 (17%), 2/20 (10%), 41%, not significant; (Carcinogen: 7,12-DIMETHYLBENZ[A]ANTHRACENE, 57-97-6, Dose [Inhibitor]: 0: 5% IN DIET FOR DURATION OF STUDY BEGINNING 2 WK PRIOR TO CARCINOGEN DOSE (STUDY DURATION: 6 MO), Route [Inhibitor]: ORAL, Species: RAT, Strain/Sex: WISTAR/FEMALE, Target Tissue: Type of Lesion: MAMMARY GLAND: TUMOR, Dose [Carcinogen]: 10 MG IN PEANUT OIL INJECTED INTO SUBCUTANEOUS POUCH CREATED IN THE 5TH AND 6TH MAMMARY GLAND REGION, Promoter: NONE USED) 20/20 (100%), 5/20 (25%), 75%, p<0.001; (Carcinogen: 7,12-DIMETHYLBENZ[A]ANTHRACENE, 57-97-6, Dose [Inhibitor]: 0, 2% IN DIET FOR 22 WK BEGINNING 2 WK PRIOR TO CARCINOGEN DOSE (STUDY DURATION: 22 WK), Route [Inhibitor]: ORAL, Species: MOUSE, Strain/Sex: SENCAR/FEMALE, Target Tissue: Type of Lesion: LYMPHATIC SYSTEM:LYMPHOMA OR LEUKEMIA, Dose [Carcinogen]: 1 MG IN 0.1 ML CORN OIL 1/WK FOR 5 WK, Promoter: NONE USED) 45%, 21%, 53%, p<0.05; (Carcinogen: 7,12-DIMETHYLBENZ[A]ANTHRACENE, 57-97-6, Dose [Inhibitor]: 0, 2% IN DIET FOR 22 WK BEGINNING 2 WK PRIOR TO CARCINOGEN DOSE (STUDY DURATION: 22 WK), Route [Inhibitor]: ORAL, Species: MOUSE, Strain/Sex: SENCAR/FEMALE, Target Tissue: Type of Lesion: MAMMARY GLAND: TUMOR, Dose [Carcinogen]: 1 MG IN 0.1 ML CORN OIL 1/WK FOR 5 WK, Promoter: NONE USED) 68%, 78%, -15%, not significant; (Carcinogen: 7,12-DIMETHYLBENZ[A]ANTHRACENE, 57-97-6, Dose [Inhibitor]: 0, 2% IN DIET FOR 22 WK BEGINNING 2 WK PRIOR TO CARCINOGEN DOSE (STUDY DURATION: 22 WK), Route [Inhibitor]: ORAL, Species: MOUSE, Strain/Sex: SENCAR/FEMALE, Target Tissue: Type of Lesion: OVARY:TUMOR, Dose [Carcinogen]: 1 MG IN 0.1 ML CORN OIL 1/WK FOR 5 WK, Promoter: NONE USED) 20%, 8%, 60%, p<0.1; (Carcinogen: 7,12-DIMETHYLBENZ[A]ANTHRACENE, 57-97-6, Dose [Inhibitor]: 0, 3 UMOL IN ACETONE 1/WK FOR 10 WK APPLIED 5 MIN PRIOR TO EACH CARCINOGEN DOSE (STUDY DURATION: 26 WK), Route [Inhibitor]: DERMAL, Species: MOUSE, Strain/Sex: CD-1/FEMALE, Target Tissue: Type of Lesion: SKIN: TUMORS, Dose [Carcinogen]: 2 NMOL 1/WK FOR 10 WK, Promoter: 12-O-TETRADECANOYLPHORBOL-13-ACETATE, 16561-29-8) 100%, 98%, 2%, not calculated. Moreover, the “tumour outcome (control, treated, inhibition, significance)” value is on record as 100%, 98%, 2%, not calculated (Carcinogen: 7,12-DIMETHYLBENZ[A]ANTHRACENE, 57-97-6, Dose [Inhibitor]: 0, 10 UMOL IN ACETONE 1/WK FOR 10 WK APPLIED 5 MIN PRIOR TO EACH CARCINOGEN DOSE (STUDY DURATION: 26 WK), Route [Inhibitor]: DERMAL, Species: MOUSE, Strain/Sex: CD-1/FEMALE, Target Tissue: Type of Lesion: SKIN: TUMORS, Dose [Carcinogen]: 2 NMOL 1/WK FOR 10 WK, Promoter: 12-O-TETRADECANOYLPHORBOL-13-ACETATE, 16561-29-8) and 68%, 0%, 100%, not calculated (Carcinogen: 7,12-DIMETHYLBENZ[A]ANTHRACENE, 57-97-6, Dose [Inhibitor]: 10 UMOL IN 200 µL ACETONE 2/WK FOR 19 WK BEGINNING 1 WK POST CARCINOGEN DOSE (STUDY DURATION: 20 WK), Route [Inhibitor]: DERMAL, Species: MOUSE, Strain/Sex: CD-1/FEMALE, Target Tissue: Type of Lesion: SKIN: PAPILLOMA, Dose [Carcinogen]: 200 NMOL IN 200 µL ACETONE ONCE, Promoter: 12-O-TETRADECANOYLPHORBOL-13-ACETATE, 16561-29-8).
